The text below walks through data of US20240342291A1, “Therapeutic Coordination Polymers Containing Pharmaceuticals for Drug Release Applications” (UNIVERSITY OF WINDSOR, priority 2021, published 2024).

What all share (assay type): physicochemical
A short description of data set [1]: Dissolution (drug release) in 0.05 M phosphate buffer pH 6.8.
Data set [2] in a line: Intrinsic dissolution rate (IDR) in 0.05M phosphate buffer pH 6.8.
Data set [3] can be described thus: Pharmaceutical loading (relative percentage of diclofenac by mass). The source says: It has been appreciated that the pharmaceutical loading in the TCPs may be less than that of a commercially available pharmaceutical sodium salt due to the mass of the organic linkers. Provided below is Table I showing a summary for the relative percentages in some of specific diclofenac TCPs. For example, the percent of diclofenac in sodium diclofenac is 93%, whereas the TCPs had loading ranging from 42-70%. The percentage of metal within the TCPs by mass ranged from 2.6-7.9% and the percent of linker by mass ranged from 22-41%. The TCP with EtOH in the name were synthesized in EtOH, all others were synthesized in MeOH. However, it is not strictly required that TCPs be prepared in MeOH and TCPs may be prepared in EtOH instead, or other solvents such as but not limited to: water, acetonitrile, dimethyl sulfoxide, nitromethane, isopropyl alcohol, dimethylformamide or a mixture thereof.

As for `CC(C)Cc1ccc(C(C)C(=O)O)cc1.[Na]` (stereo not shown) [sodium ibuprofen], the ibuprofen released in data set [1] (after 5 min) came to 100%.
Consider `O=C(O)Cc1ccccc1Nc1c(Cl)cccc1Cl` [sodium diclofenac], for which the diclofenac released in data set [1] (after 1 h) is 100%. The “intrinsic dissolution rate (IDR)” value in data set [2] came to 1161±0.216 μg cm^−2 min^−1. Besides, the “percent of diclofenac (loading)” value in data set [3] stood at 93%.
